# Literature values as cited in patent US7153867B2, “Use of nitrogen substituted thalidomide analogs for the treatment of macular degenerator” (Celgene Corporation, priority 2001, dated 2006).
# Tested on: vascular endothelial cell proliferation
# Details: in vitro; endothelial versus tumor cell proliferation
smiles,measurement,value
CO[C@@H]1[C@H](OC(=O)NC(=O)CCl)CC[C@]2(CO2)[C@H]1[C@@]1(C)O[C@@H]1CC=C(C)C [AGM-1470],half-maximal inhibition of vascular endothelial cell proliferation at lower concentration than tumor cell proliferation,4 logs
